Measured values published in US12022844B2, “Nutritional composition, food/drink composition using nutritional composition, and modified milk powder using nutritional composition” (priority 2018, dated 2024).

What was measured:
[1] = test system: Lactobacillus acidophhilus ATCC4356; assay: Mix-culturing with Bifidobacterium bifidum by HMO as sugar source, quantitative PCR; type: cell-based, Lactobacillus acidophilus; conditions: ATCC 4356^T mix-cultured with Bifidobacterium bifidum (NITE BP-02429), sugar source 2%, Table 8
Procedure: (§1) A10% solution of glucose (manufactured by Nakarai Tesque Inc.), and 2′-FL ((≥95%) Funakoshi, available from sigma), and LNnT (manufactured by ELICITYL) as examples of HMOs was prepared with ion exchanged water, and was subjected to sterile filtration using Millex-GV (SLGV033RS).
Lactobacilli MRS Broth (BD) (0.05% L-Cysteine Hydrochloride for Bacteria of the genus Bifidobacterium) was added to strains of Table 1 below (bacteria belonging to Bifidobacterium bifidum) and Table 2 below. After a sterilization treatment, 3% of the bacterial solution was inoculated, and anaerobically cultured (pre-pre cultured) at 37° C. for 16 h. […]
OD650 was measured from each well in the plates in the above (4) and the above (5) before (0 h) culturing and after (8 h) culturing, by MICROPLATE READER SH-9000 (manufactured by CORONA ELECTRIC). […] After the DNA extraction, the number of proliferating bacteria of Bifidobacteria/lactobacilli was analyzed by using the bacterial species-specific primer noted in Table 4, by a quantitative PCR method (see “Structural analysis of intestinal flora”—analysis of bacterial flora in human feces using quantitative PCR—by Kouichi Watanabe, Enterobacteriological journal, 20:35-42, 2006). […]

[2] = test system: Bifidobacterium longum subspecies longum BB536; assay: as above; type: cell-based; conditions: for Proliferation rate (number of bacteria after mix-culturing for 8 h/number of bacteria after single bacterial culturing): BB536 mix-cultured with Bifidobacterium bifidum (NITE BP-02429), sugar source 2%, Table 8; for Proliferation rate of BB536 (mix-cultured bacteria after 8 h/single bacterial culturing 8 h): Table 9; for proliferation of BB536 through mix-culturing with bacteria belonging to Bifidobacterium bifidum: summary of Table 9
Procedure: as §1
(§2) Lactobacilli MRS Broth (BD) (0.05% L-Cysteine Hydrochloride for Bacteria of the genus Bifidobacterium) was added to strains of Table 1 below (bacteria belonging to Bifidobacterium bifidum) and Table 2 below. After a sterilization treatment, 3% of the bacterial solution was inoculated, and anaerobically cultured (pre-pre cultured) at 37° C. for 16 h.
(§3) The following day, 1% glucose was added to a modified BL agar medium (“Studies on Bifidobacteria” by Tomotari Mitsuoka, p. 306, Japan Bifidus Foundation, issued in 1994) noted in Table 3, for preparation. After a sterilization treatment, 3% of the pre-pre cultured bacterial solution was inoculated, and anaerobically pre-cultured (pre-cultured) at 37° C. for 12 h.
(§4) The pre-cultured bacterial solution was collected and washed once with a sterile physiological saline solution. Then, mass-up was performed to an equal volume with the modified BL agar medium (“Studies on Bifidobacteria” by Tomotari Mitsuoka, p. 306, Japan Bifidus Foundation, issued in 1994) noted in Table 3 to prepare a suspended bacterial solution.
(§5) The modified BL agar medium (“Studies on Bifidobacteria” by Tomotari Mitsuoka, p. 306, Japan Bifidus Foundation, issued in 1994) noted in Table 3 was prepared at a capacity of 60%, and was subjected to an autoclave sterilization treatment. Then, 40% of each sugar solution prepared in (1) was aseptically added so as to prepare a medium with a sugar concentration of 4%.
(§6) The medium prepared in the above (3) was dispensed at a capacity that is half the capacity for aseptic culturing in a 96-well plate, and each of the bacterial solutions of strains of bacteria belonging to Bifidobacterium bifidum in Table 1 and probiotics having a low ability to assimilate human milk oligosaccharides in Table 2, which was prepared in the above (2), was dispensed at a remaining […] capacity into the medium prepared in the above (3) such that the bacterial solution had 12%. Then, a final sugar concentration was set to 2%. The plate into which the bacterial solution was dispensed was anaerobically cultured at 37° C. for 8 h.
(§7) OD650 was measured from each well in the plates in the above (4) and the above (5) before (0 h) culturing and after (8 h) culturing, by MICROPLATE READER SH-9000 (manufactured by CORONA ELECTRIC). After turbidity measurement, microbial cells were collected, and DNA extraction was performed. After the DNA extraction, the number of proliferating bacteria of Bifidobacteria/lactobacilli was analyzed by using the bacterial species-specific primer noted in Table 4, by a quantitative PCR method (see “Structural analysis of intestinal flora”—analysis of bacterial flora in human feces using quantitative PCR—by Kouichi Watanabe, Enterobacteriological journal, 20:35-42, 2006).
(§8) It was decided to culture Bifidobacterium bifidum (NITE BP-02429) in which availability of 2′-FL or LNnT was found as described above, in combination with strains in Table 2, which cannot use 2′-FL or LNnT. Bifidobacterium bifidum (NITE BP-02429) and the strains in Table 2, which cannot use 2′-FL or LNnT, were mix-cultured by 2′-FL or LNnT as a sugar source, and after culturing for 8 h, the proliferation rate of the number of bacteria of each strain (proliferation rate=the number of bacteria after mix-culturing for 8 h/the number of bacteria after single bacterial culturing) was measured by a quantitative PCR method using each strain-specific oligonucleotide primer noted in Table 4, for the strain in Table 2.
Seven strains of Bifidobacterium bifidum in Table 1 and Bifidobacterium longum subspecies longum BB536 which cannot use 2′-FL or LNnT were mix-cultured by 2′-FL or LNnT as a sugar source. […]

[3] = test system: Lactobacillus plantarum ATCC14917; assay: as above; type: cell-based; conditions: ATCC 14917^T mix-cultured with Bifidobacterium bifidum (NITE BP-02429), sugar source 2%, Table 8
Procedure: as §1, §2, §3, §4, §5, §6, §7, §8

[4] = test system: Bifidobacterium adolescentis ATCC15703; assay: as above; type: cell-based; conditions: ATCC 15703^7 mix-cultured with Bifidobacterium bifidum (NITE BP-02429), sugar source 2%, Table 8
Procedure: as §1, §2, §3, §4, §5, §6, §7, §8

[5] = test system: Bifidobacterium pseudolongum ATCC25526; assay: as above; type: cell-based; conditions: ATCC 25526^T mix-cultured with Bifidobacterium bifidum (NITE BP-02429), sugar source 2%, Table 8
Procedure: as §1, §2, §3, §4, §5, §6, §7, §8

[6] = test system: Lactobacillus rhamnosus ATCC7469; assay: as above; type: cell-based; conditions: ATCC 7469^T mix-cultured with Bifidobacterium bifidum (NITE BP-02429), sugar source 2%, Table 8
Procedure: as §1, §2, §3, §4, §5, §6, §7, §8

[7] = test system: bacteria belonging to Bifidobacterium bifidum in Table 1; assay: Availability of HMOs by bacteria belonging to Bifidobacterium bifidum (single culturing, summary); type: cell-based; conditions: single bacterial culturing, 8 h; summary of Table 5
Procedure: (§9) The medium prepared in the above (3) was dispensed at a capacity that is half the capacity for culturing in a 96-well plate, and the bacterial solution prepared in the above (2) was dispensed at a remaining half capacity such that the bacterial solution had 6%. Then, a final sugar concentration was set to 2%. The plate into which the bacterial solution was dispensed was anaerobically cultured at 37° C. for 8 h.
as §7
Regarding bacteria belonging to Bifidobacterium bifidum in Table 1, each strain was cultured as a single bacterium by 2′-FL or LNnT (HMOs) as a sugar source, and OD650 was measured. […]

[8] = test system: Bifidobacterium bifidum NITE BP-1252; assay: Single bacterial culturing with HMO as sugar source, OD650; type: cell-based; conditions: sugar source 2%, anaerobic 37° C., 8 h, Table 5
Procedure: as §1, §2, §3, §4, §5, §9, §7
(§10) Regarding bacteria belonging to Bifidobacterium bifidum in Table 1, each strain was cultured as a single bacterium by 2′-FL or LNnT (HMOs) as a sugar source, and OD650 was measured. Table 5 illustrates OD650 increase values after seven strains of the bacteria belonging to Bifidobacterium bifidum in Table 1 were cultured for 8 h by 2′-FL or LNnT as a sugar source.

[9] = test system: Bifidobacterium bifidum NITE BP-02431; assay: as above; type: cell-based; conditions: sugar source 2%, anaerobic 37° C., 8 h, Table 5
Procedure: as §1, §2, §3, §4, §5, §9, §7, §10

[10] = test system: Bifidobacterium bifidum NITE BP-02432; assay: as above; type: cell-based; conditions: sugar source 2%, anaerobic 37° C., 8 h, Table 5
Procedure: as §1, §2, §3, §4, §5, §9, §7, §10

[11] = test system: Bifidobacterium bifidum NITE P-02648; assay: as above; type: cell-based; conditions: sugar source 2%, anaerobic 37° C., 8 h, Table 5
Procedure: as §1, §2, §3, §4, §5, §9, §7, §10

[12] = mix-cultured with Bifidobacterium bifidum ATCC 29521^T
[13] = mix-cultured with Bifidobacterium bifidum NITE BP-1252
[14] = mix-cultured with Bifidobacterium bifidum NITE BP-02429
[15] = mix-cultured with Bifidobacterium bifidum NITE BP-02431
[16] = mix-cultured with Bifidobacterium bifidum NITE BP-02432
[17] = mix-cultured with Bifidobacterium bifidum NITE BP-02433
[18] = mix-cultured with Bifidobacterium bifidum NITE P-02648

Compound	Proliferation rate (number of bacteria after mix-culturing for 8 h/number of bacteria after single bacterial culturing) [1]	Proliferation rate (number of bacteria after mix-culturing for 8 h/number of bacteria after single bacterial culturing) [2]	Proliferation rate of BB536 (mix-cultured bacteria after 8 h/single bacterial culturing 8 h) [2, 12]	Proliferation rate of BB536 (mix-cultured bacteria after 8 h/single bacterial culturing 8 h) [2, 13]	Proliferation rate of BB536 (mix-cultured bacteria after 8 h/single bacterial culturing 8 h) [2, 14]	Proliferation rate of BB536 (mix-cultured bacteria after 8 h/single bacterial culturing 8 h) [2, 15]	Proliferation rate of BB536 (mix-cultured bacteria after 8 h/single bacterial culturing 8 h) [2, 16]	Proliferation rate of BB536 (mix-cultured bacteria after 8 h/single bacterial culturing 8 h) [2, 17]	Proliferation rate of BB536 (mix-cultured bacteria after 8 h/single bacterial culturing 8 h) [2, 18]	proliferation of BB536 through mix-culturing with bacteria belonging to Bifidobacterium bifidum [2]	Proliferation rate (number of bacteria after mix-culturing for 8 h/number of bacteria after single bacterial culturing) [3]	Proliferation rate (number of bacteria after mix-culturing for 8 h/number of bacteria after single bacterial culturing) [4]	Proliferation rate (number of bacteria after mix-culturing for 8 h/number of bacteria after single bacterial culturing) [5]	Proliferation rate (number of bacteria after mix-culturing for 8 h/number of bacteria after single bacterial culturing) [6]	assimilability by all the bacteria belonging to Bifidobacterium bifidum in Table 1 [7]	OD650 increase value [8]	OD650 increase value [9]	OD650 increase value [10]	OD650 increase value [11]
2′-fucosyllactose [2′-FL]	3.54	4.30	1.35	3.17	4.13	6.33	3.16	5.90	9.97	proliferates	1.76	1.91	1.24	2.69	had assimilability	0.225	0.037	0.430	0.470
CC(=O)N[C@H]1[C@H](O[C@H]2[C@@H](O)[C@@H](CO)O[C@@H](O[C@H]3[C@H](O)[C@@H](O)C(O)O[C@@H]3CO)[C@@H]2O)O[C@H](CO)[C@@H](O[C@@H]2O[C@H](CO)[C@H](O)[C@H](O)[C@H]2O)[C@@H]1O (mixture of isomers) [LNnT, lacto-N-neotetraose]	3.77	2.13	1.07	1.64	3.57	3.02	1.51	3.08	4.95	proliferates	2.58	1.53	0.98	5.03	had assimilability	0.373	0.535	0.522	0.719
